According to ChEMBL document CHEMBL4842344, “Design, synthesis and biological activity evaluation of novel scopoletin-NO donor derivatives against MCF-7 human breast cancer in vitro and in vivo” (Eur J Med Chem, 2021):
Active and inactive are the calls of the source. No cut-off for these calls is given here.

What was measured:
MCF7 [1] = assay: Inhibition of PI3K/AKT signalling pathway in human MCF7 cells assessed as reduction in phosphorylated AKT expression measured after 24 hrs by western blot analysis; assay type: cell-based; conditions: dose 0.5-2 µM
MCF7 [2] = assay: Inhibition of PI3K/AKT signalling pathway in human MCF7 cells assessed as reduction in phosphorylated PI3K expression measured after 24 hrs by western blot analysis; assay type: cell-based; conditions: dose 0.5-2 µM
MCF7 [3] = assay: Antiproliferative activity against human MCF7 cells assessed as inhibition of cell growth measured after 48 hrs by MTT assay; assay type: functional, cell-based; conditions: MCF7, 48 h
MDA-MB-231 = assay: Antiproliferative activity against human MDA-MB-231 cells assessed as inhibition of cell growth measured after 48 hrs by MTT assay; assay type: functional, cell-based; conditions: MDA-MB-231, 48 h
MCF-10A = assay: Cytotoxicity against human MCF-10A cells assessed as reduction in cell viability measured after 48 hrs by MTT assay; assay type: cell-based
MCF7 [4] = assay: Potency index, ratio of scopoletin derivative 5 IC50 to test compound IC50 for human MCF7 cells assessed as inhibition of cell growth measured after 48 hrs by MTT assay; assay type: functional
MCF7 [5] = assay: Inhibition of cell proliferation in human MCF7 cells assessed as increase in intracellular NO production at 25 uM measured after 2.5 hrs by nitric oxide assay; assay type: functional, cell-based
MCF7 [6] = assay: Antiproliferative activity against human MCF7 cells assessed as inhibition of cell proliferation at 2 uM pretreated with hemoglobin NO scavenger for 2 hrs followed by addition of compound and measured after 48 hrs by MTT assay; assay type: functional, cell-based
MCF7 [7] = assay: Induction of cell cycle arrest in human MCF7 cells assessed as accumulation of cells in G1 phase at 0.25 uM measured after 24 hrs by propidium iodide staining based flow cytometry analysis (Rvb= 54.96%); assay type: functional
MCF7 [8] = assay: Induction of cell cycle arrest in human MCF7 cells assessed as accumulation of cells in S phase at 0.25 uM measured after 24 hrs by propidium iodide staining based flow cytometry analysis (Rvb= 25.71%); assay type: functional
MCF7 [9] = assay: Induction of cell cycle arrest in human MCF7 cells assessed as accumulation of cells in G2 phase at 0.25 uM measured after 24 hrs by propidium iodide staining based flow cytometry analysis (Rvb= 18.5%); assay type: functional
MCF7 [10] = assay: Induction of cell cycle arrest in human MCF7 cells assessed as accumulation of cells in G1 phase at 0.5 uM measured after 24 hrs by propidium iodide staining based flow cytometry analysis (Rvb= 54.96%); assay type: functional
MCF7 [11] = assay: Induction of cell cycle arrest in human MCF7 cells assessed as accumulation of cells in S phase at 0.5 uM measured after 24 hrs by propidium iodide staining based flow cytometry analysis (Rvb= 25.71%); assay type: functional
MCF7 [12] = assay: Induction of cell cycle arrest in human MCF7 cells assessed as accumulation of cells in G2 phase at 0.5 uM measured after 24 hrs by propidium iodide staining based flow cytometry analysis (Rvb= 18.5%); assay type: functional
MCF7 [13] = assay: Induction of cell cycle arrest in human MCF7 cells assessed as accumulation of cells in G1 phase at 1 uM measured after 24 hrs by propidium iodide staining based flow cytometry analysis (Rvb= 54.96%); assay type: functional
MCF7 [14] = assay: Induction of cell cycle arrest in human MCF7 cells assessed as accumulation of cells in S phase at 1 uM measured after 24 hrs by propidium iodide staining based flow cytometry analysis (Rvb= 25.71%); assay type: functional
MCF7 [15] = assay: Induction of cell cycle arrest in human MCF7 cells assessed as accumulation of cells in G2 phase at 1 uM measured after 24 hrs by propidium iodide staining based flow cytometry analysis (Rvb= 18.5%); assay type: functional
MCF7 [16] = assay: Induction of cell cycle arrest in human MCF7 cells assessed as accumulation of cells in G2/M phase at 0.25 to 1 uM measured after 24 hrs by propidium iodide staining based flow cytometry analysis (Rvb= 19.7%); assay type: functional; conditions: dose 0.25-1 µM
MCF7 [17] = assay: Induction of cell cycle arrest in human MCF7 cells assessed as accumulation of cells in sub G1 phase at 0.25 to 1 uM measured after 24 hrs by propidium iodide staining based flow cytometry analysis (Rvb= 21.1%); assay type: functional; conditions: dose 0.25-1 µM
MCF7 [18] = assay: Inhibition of PI3K/AKT signalling pathway in human MCF7 cells assessed as reduction in PI3K expression at 0.5 to 2 uM measured after 24 hrs by western blot analysis; assay type: cell-based; conditions: dose 0.5-2 µM
MCF7 [19] = assay: Inhibition of PI3K/AKT signalling pathway in human MCF7 cells assessed as reduction in AKT expression at 0.5 to 2 uM measured after 24 hrs by western blot analysis; assay type: cell-based; conditions: dose 0.5-2 µM
MCF7 [20] = assay: Induction of apoptosis in human MCF7 cells assessed as live cells at 0.25 uM measured after 24 hrs by Annexin-V FITC/PI staining based flow cytometry analysis (Rvb= 93.0%); assay type: functional
MCF7 [21] = assay: Induction of apoptosis in human MCF7 cells assessed as early apoptotic cells at 0.25 uM measured after 24 hrs by Annexin-V FITC/PI staining based flow cytometry analysis (Rvb= 1.33%); assay type: functional
MCF7 [22] = assay: Induction of apoptosis in human MCF7 cells assessed as late apoptotic cells at 0.25 uM measured after 24 hrs by Annexin-V FITC/PI staining based flow cytometry analysis (Rvb= 5.61%); assay type: functional
MCF7 [23] = assay: Induction of apoptosis in human MCF7 cells assessed as dead cells at 0.25 uM measured after 24 hrs by Annexin-V FITC/PI staining based flow cytometry analysis (Rvb= 0.06%); assay type: functional
MCF7 [24] = assay: Induction of apoptosis in human MCF7 cells assessed as live cells at 0.5 uM measured after 24 hrs by Annexin-V FITC/PI staining based flow cytometry analysis (Rvb= 93.0%); assay type: functional
MCF7 [25] = assay: Induction of apoptosis in human MCF7 cells assessed as early apoptotic cells at 0.5 uM measured after 24 hrs by Annexin-V FITC/PI staining based flow cytometry analysis (Rvb= 1.33%); assay type: functional
MCF7 [26] = assay: Induction of apoptosis in human MCF7 cells assessed as late apoptotic cells at 0.5 uM measured after 24 hrs by Annexin-V FITC/PI staining based flow cytometry analysis (Rvb= 5.61%); assay type: functional
MCF7 [27] = assay: Induction of apoptosis in human MCF7 cells assessed as dead cells at 0.5 uM measured after 24 hrs by Annexin-V FITC/PI staining based flow cytometry analysis (Rvb= 0.06%); assay type: functional
MCF7 [28] = assay: Induction of apoptosis in human MCF7 cells assessed as live cells at 1 uM measured after 24 hrs by Annexin-V FITC/PI staining based flow cytometry analysis (Rvb= 93.0%); assay type: functional
MCF7 [29] = assay: Induction of apoptosis in human MCF7 cells assessed as early apoptotic cells at 1 uM measured after 24 hrs by Annexin-V FITC/PI staining based flow cytometry analysis (Rvb= 1.33%); assay type: functional
MCF7 [30] = assay: Induction of apoptosis in human MCF7 cells assessed as late apoptotic cells at 1 uM measured after 24 hrs by Annexin-V FITC/PI staining based flow cytometry analysis (Rvb= 5.61%); assay type: functional
MCF7 [31] = assay: Induction of apoptosis in human MCF7 cells assessed as dead cells at 1 uM measured after 24 hrs by Annexin-V FITC/PI staining based flow cytometry analysis (Rvb= 0.06%); assay type: functional
MCF7 [32] = assay: Induction of apoptosis in human MCF7 cells assessed as upregulation of Bax expression at 0.5 to 2 uM measured after 24 hrs by western blot analysis; assay type: functional, cell-based; conditions: dose 0.5-2 µM
MCF7 [33] = assay: Induction of apoptosis in human MCF7 cells assessed as upregulation of Bad expression at 0.5 to 2 uM measured after 24 hrs by western blot analysis; assay type: functional, cell-based; conditions: dose 0.5-2 µM
MCF7 [34] = assay: Induction of apoptosis in human MCF7 cells assessed as downregulation of Bcl-2 expression at 0.5 to 2 uM measured after 24 hrs by western blot analysis; assay type: functional, cell-based; conditions: dose 0.5-2 µM
MCF7 [35] = assay: Induction of apoptosis in human MCF7 cells assessed as increase in cleavage of PARP-1 at 0.5 to 2 uM measured after 24 hrs by western blot analysis; assay type: functional, cell-based; conditions: dose 0.5-2 µM
MCF7 [36] = assay: Antitumor activity against human MCF7 cells xenografted in ip dosed BALB/c nude mouse assessed as tumor growth inhibition administered once every 2 days for 21 consecutive days; assay type: functional, organism-based; conditions: time 21.0 day
MCF7 [37] = assay: Antitumor activity against human MCF7 cells xenografted in BALB/c nude mouse assessed as reduction in tumor volume at 30 mg/kg, ip administered once every 2 days for 21 consecutive days relative to control; assay type: functional; parameters: scale not given: the % may be the effect or the level left; conditions: time 21 day
MCF7 [38] = assay: Antitumor activity against human MCF7 cells xenografted in BALB/c nude mouse assessed as tumor growth inhibition at 60 mg/kg, ip administered once every 2 days for 21 consecutive days relative to control; assay type: functional; conditions: 504 h, time 21 day, read-out: TGI
MCF7 [39] = assay: Antitumor activity against human MCF7 cells xenografted in BALB/c nude mouse assessed as reduction in tumor weight at 30 to 60 mg/kg, ip administered once every 2 days for 21 consecutive days; assay type: functional, organism-based; conditions: dose 30-60 mg/kg, time 21.0 day
[40] = Toxicity in BALB/c mouse xenografted with human MCF7 cells assessed as weight loss at 30 to 60 mg/kg, ip measured after 21 days; assay type: organism-based; conditions: in vivo, 504 h, dose 30-60 mg/kg, time 21 day
[41] = Toxicity in BALB/c mouse xenografted with human MCF7 cells assessed as effect on heart at 30 to 60 mg/kg, ip measured after 21 days by hematoxylin and eosin staining based histopathological analysis; assay type: organism-based; conditions: in vivo, 504 h, dose 30-60 mg/kg, time 21 day
[42] = Toxicity in BALB/c mouse xenografted with human MCF7 cells assessed as effect on lung at 30 to 60 mg/kg, ip measured after 21 days by hematoxylin and eosin staining based histopathological analysis; assay type: organism-based; conditions: in vivo, 504 h, dose 30-60 mg/kg, time 21 day
[43] = Toxicity in BALB/c mouse xenografted with human MCF7 cells assessed as effect on liver at 30 to 60 mg/kg, ip measured after 21 days by hematoxylin and eosin staining based histopathological analysis; assay type: organism-based; conditions: in vivo, 504 h, dose 30-60 mg/kg, time 21 day
[44] = Toxicity in BALB/c mouse xenografted with human MCF7 cells assessed as effect on spleen at 30 to 60 mg/kg, ip measured after 21 days by hematoxylin and eosin staining based histopathological analysis; assay type: organism-based; conditions: in vivo, 504 h, dose 30-60 mg/kg, time 21 day
[45] = Toxicity in BALB/c mouse xenografted with human MCF7 cells assessed as effect on kidney at 30 to 60 mg/kg, ip measured after 21 days by hematoxylin and eosin staining based histopathological analysis; assay type: organism-based; conditions: in vivo, 504 h, dose 30-60 mg/kg, time 21 day

For `COc1cc2cc(C(=O)NCc3ccc(F)cc3)c(=O)oc2cc1OCCCOc1no[n+]([O-])c1S(=O)(=O)c1ccccc1`, the inhibition (MCF7 [1]) was “Dose-Dependent Effect”, the inhibition (MCF7 [2]) was “Dose-Dependent Effect” and the IC50 (MCF7 [3]) was 0.37 µM. The IC50 (MDA-MB-231) was 0.77 µM, the IC50 (MCF-10A) was 8.46 µM and the “Ratio IC50” value (MCF7 [4]) was 5. For the same compound, the Activity (MCF7 [5]) was “Active”, the Activity (MCF7 [6]) was “inactive” and the Activity (MCF7 [7]) was 52.88%. For the same compound, the Activity (MCF7 [8]) was 20.8%, the Activity (MCF7 [9]) was 25.76% and the Activity (MCF7 [10]) was 40.11%. The Activity (MCF7 [11]) was 19.05%, the Activity (MCF7 [12]) was 38.44% and the Activity (MCF7 [13]) was 36.65%. It also gave an Activity (MCF7 [14]) of 18.16%, an Activity (MCF7 [15]) of 44.96% and an Activity (MCF7 [16]) of 47.1%. For the same compound, the Activity (MCF7 [17]) was 50%, the inhibition (MCF7 [18]) was “inactive” and the inhibition (MCF7 [19]) was “inactive”. The Activity (MCF7 [20]) was 87.5%, the Activity (MCF7 [21]) was 5.72% and the Activity (MCF7 [22]) was 6.53%. The Activity (MCF7 [23]) was 0.153%, the Activity (MCF7 [24]) was 83.1% and the Activity (MCF7 [25]) was 7.49%. The Activity (MCF7 [26]) was 9.19%, the Activity (MCF7 [27]) was 0.196% and the Activity (MCF7 [28]) was 62%. The Activity (MCF7 [29]) was 9.38%, the Activity (MCF7 [30]) was 27.2% and the Activity (MCF7 [31]) was 1.41%. The Activity (MCF7 [32]) was “Active”, the Activity (MCF7 [33]) was “Active” and the Activity (MCF7 [34]) was “Dose-Dependent Effect”. For the same compound, the Activity (MCF7 [35]) was “Active”, the Activity (MCF7 [36]) was “Dose-Dependent Effect” and the Activity (MCF7 [37]) was 63.3%. The inhibition in vivo at 60 mg/kg (MCF7 [38]) was 75.2%, the Activity (MCF7 [39]) was “Active” and the Activity [40] was “Non-Toxic”. The Activity [41] was “Non-Toxic”, the Activity [42] was “Non-Toxic” and the Activity [43] was “Non-Toxic”. The Activity [44] was “Non-Toxic” and the Activity [45] was “Non-Toxic”.

`COc1ccc(NC(=O)c2cc3cc(OC)c(OCCCOc4no[n+]([O-])c4S(=O)(=O)c4ccccc4)cc3oc2=O)cc1` gave an IC50 (MCF7 [3]) of 0.41 µM, an IC50 (MDA-MB-231) of 0.73 µM and an IC50 (MCF-10A) of 5.47 µM. The Activity (MCF7 [5]) was “Active”.

Compound `COc1cccc2c1C(=O)c1c(O)c3c(c(O)c1C2=O)C[C@@](O)(C(=O)CO)C[C@@H]3O[C@H]1C[C@H](N)[C@H](O)[C@H](C)O1` [DOXORUBICIN] has an IC50 (MCF7 [3]) of 0.51 µM, an IC50 (MDA-MB-231) of 0.55 µM and an IC50 (MCF-10A) of 0.49 µM.
